Reference: patent publication US10106552B2, “Compounds inhibiting eukaryotic elongation factor 2 kinase activity” (Longevica Pharmaceuticals, Inc., priority 2013, dated 2018)

Target: recombinant eEF2K (Homo sapiens (Human), UniProt O00418)
Assay: eEF2K Kinase-Glo luminescent kinase assay (ATP consumption, peptide substrate)
Assay type: biochemical
Settings: average of two to four separate experimental measurements, each the average of three replicates
Protocol: The following compounds were synthesized using the general methods described above. In the table below, IC50 values are in μM and are the average of two to four separate experimental measurements, each consisting in turn of the average of three replicates. IC50 values were calculated using the methods as described in Example 2. MW was determined by mass spectroscopy analysis, and is expressed as M+1.
To determine the IC50 of compounds of the invention, recombinant eEF2K was diluted in an assay buffer in the presence of calmodulin, a calcium-binding messenger protein expressed in eukaryotic cells, and incubated with peptide substrate Ac-RKKYKFNEDTERRRFL in the presence of Adenosine-5′-triphosphate (ATP) and the test compound. The peptide substrate is efficiently and specifically phosphorylated by eEF2K at a single substrate concentration of 100 μM. Using this peptide, eEF2K activity can be quantitatively determined using a Kinase-Glo® luminescent kinase assay kit (Promega) that measures ATP consumption by EF2K during phosphorylation of the substrate. ATP conversion was recorded using Perkin-Elmer Victor Luminometer. Data was plotted using GraphPad software and IC50 was calculated using 3-parameter sigmoidal curve fit.

SMILES | IC50 [µM]
CC1(C)C/C(=C\c2ccc(Cl)o2)c2nc3sc(C(N)=O)c(N)c3c(-c3ccc(Cl)o3)c2C1 [Compound 1, 3-Amino-4-(5-chloro-furan-2-yl)-8-(5-chloro-furan-2-ylmethylene)-6,6-dimethyl-5,6,7,8-tetrahydro-thieno[2,3-b]quinoline-2-carboxylic acid amide] | 2.7
CC1(C)CCc2nc3sc(C(N)=O)c(N)c3c(-c3ccc(Cl)o3)c2C1 [Compound 2, 3-Amino-4-(5-chloro-furan-2-yl)-6,6-dimethyl-5,6,7,8-tetrahydro-thieno[2,3-b]quinoline-2-carboxylic acid amide] | 1.1
NC(=O)c1sc2nc3c(c(-c4ccc(Cl)o4)c2c1N)CC(c1ccccc1)C/C3=C\c1ccc(Cl)o1 (stereo not drawn) [Compound 3, 3-Amino-4-(5-chloro-furan-2-yl)-8-(5-chloro-furan-2-ylmethylene)-6-phenyl-5,6,7,8-tetrahydro-thieno[2,3-b]quinoline-2-carboxylic acid amide] | 10000
NC(=O)c1sc2nc3c(c(-c4ccc(Cl)o4)c2c1N)CC(c1ccccc1)CC3 (stereo not drawn) [Compound 4, 3-Amino-4-(5-chloro-furan-2-yl)-6-phenyl-5,6,7,8-tetrahydro-thieno[2,3-b]quinoline-2-carboxylic acid amide] | 10000
CCCC1C/C(=C\c2ccc(Cl)o2)c2nc3sc(C(N)=O)c(N)c3c(-c3ccc(Cl)o3)c2C1 (stereo not drawn) [Compound 5, 3-Amino-4-(5-chloro-furan-2-yl)-8-(5-chloro-furan-2-ylmethylene)-6-propyl-5,6,7,8-tetrahydro-thieno[2,3-b]quinoline-2-carboxylic acid amide] | 6
CC1(C)CCc2nc3sc(C(N)=O)c(N)c3c(-c3ccco3)c2C1 [Compound 6, 3-Amino-4-furan-2-yl-6,6-dimethyl-5,6,7,8-tetrahydro-thieno[2,3-b]quinoline-2-carboxylic acid amide] | 1.2
CC1(C)CCc2c(nc3sc(C(N)=O)c(N)c3c2-c2ccc(Cl)o2)C1 [Compound 7, 3-Amino-4-(5-chloro-furan-2-yl)-7,7-dimethyl-5,6,7,8-tetrahydro-thieno[2,3-b]quinoline-2-carboxylic acid amide] | 1.6
CC1(C)CCCc2c1nc1sc(C(N)=O)c(N)c1c2-c1ccc(Cl)o1 [Compound 8, 3-Amino-4-(5-chloro-furan-2-yl)-8,8-dimethyl-5,6,7,8-tetrahydro-thieno[2,3-b]quinoline-2-carboxylic acid amide] | 4.7
CC1(C)CCc2c1nc1sc(C(N)=O)c(N)c1c2-c1ccc(Cl)o1 [Compound 9, 3-Amino-4-(5-chloro-furan-2-yl)-7,7-dimethyl-6,7-dihydro-5H-1-thia-8-aza-s-indacene-2-carboxylic acid amide] | 2.4
CC1(C)CCc2c(nc3sc(C(N)=O)c(N)c3c2-c2ccco2)C1 [Compound 10, 3-Amino-4-furan-2-yl-7,7-dimethyl-5,6,7,8-tetrahydro-thieno[2,3-b]quinoline-2-carboxylic acid amide] | 1
CC1(C)CCc2c(nc3sc(C(N)=O)c(N)c3c2-c2ccc(Cl)c(Cl)c2)C1 [Compound 11, 3-Amino-4-(3,4-dichloro-phenyl)-7,7-dimethyl-5,6,7,8-tetrahydro-thieno[2,3-b]quinoline-2-carboxylic acid amide] | 23
CC1CC(C)(C)Cc2nc3sc(C(N)=O)c(N)c3c(-c3ccc(Cl)o3)c21 (stereo not drawn) [Compound 12, 3-Amino-4-(5-chloro-furan-2-yl)-5,7,7-trimethyl-5,6,7,8-tetrahydro-thieno[2,3-b]quinoline-2-carboxylic acid amide] | 5
NC(=O)c1sc2nc3c(c(-c4ccc(Cl)o4)c2c1N)CCCC3c1ccccc1 (stereo not drawn) [Compound 13, 3-Amino-4-(5-chloro-furan-2-yl)-8-phenyl-5,6,7,8-tetrahydro-thieno[2,3-b]quinoline-2-carboxylic acid amide] | 31
CC1(C)C/C(=C\c2cccc(Cl)c2F)c2nc3sc(C(N)=O)c(N)c3c(-c3cccc(Cl)c3F)c2C1 [Compound 14, 3-Amino-8-(3-chloro-2-fluoro-benzylidene)-4-(3-chloro-2-fluoro-phenyl)-6,6-dimethyl-5,6,7,8-tetrahydro-thieno[2,3-b]quinoline-2-carboxylic acid amide] | 5020
CC1(C)CCc2c1nc1sc(C(N)=O)c(N)c1c2-c1ccco1 [Compound 15, 3-Amino-4-furan-2-yl-7,7-dimethyl-6,7-dihydro-5H-1-thia-8-aza-s-indacene-2-carboxylic acid amide] | 2.5
CC1CC(C)(C)Cc2nc3sc(C(N)=O)c(N)c3c(-c3ccco3)c21 (stereo not drawn) [Compound 16, 3-Amino-4-furan-2-yl-5,7,7-trimethyl-5,6,7,8-tetrahydro-thieno[2,3-b]quinoline-2-carboxylic acid amide] | 4.6
CC1(C)CCc2c1nc1sc(C(N)=O)c(N)c1c2-c1ccoc1 [Compound 17, 3-Amino-4-furan-3-yl-7,7-dimethyl-6,7-dihydro-5H-1-thia-8-aza-s-indacene-2-carboxylic acid amide] | 1.1

SMILES | IC50 [µM]
CC1(C)CCc2c1nc1sc(C(N)=O)c(N)c1c2-c1ccsc1 [Compound 18, 3-Amino-7,7-dimethyl-4-thiophen-3-yl-6,7-dihydro-5H-1-thia-8-aza-s-indacene-2-carboxylic acid amide] | 0.9
CC1(C)CCc2c1nc1sc(C(N)=O)c(N)c1c2C1CC1 [Compound 19, 3-Amino-4-cyclopropyl-7,7-dimethyl-6,7-dihydro-5H-1-thia-8-aza-s-indacene-2-carboxylic acid amide] | 1.1
CC1(C)CCc2nc3sc(C(N)=O)c(N)c3c(-c3ccsc3)c2C1 [Compound 20, 3-Amino-6,6-dimethyl-4-thiophen-3-yl-5,6,7,8-tetrahydro-thieno[2,3-b] quinoline-2-carboxylic acid amide] | 2.2
CC1(C)CCc2nc3sc(C(N)=O)c(N)c3c(-c3ccoc3)c2C1 [Compound 21, 3-Amino-4-furan-3-yl-6,6-dimethyl-5,6,7,8-tetrahydro-thieno[2,3-b]quinoline-2-carboxylic acid amide] | 2
CC1(C)C/C(=C\c2ccoc2)c2nc3sc(C(N)=O)c(N)c3c(-c3ccoc3)c2C1 [Compound 22, 3-Amino-4-furan-3-yl-8-furan-3-ylmethylene-6,6-dimethyl-5,6,7,8-tetrahydro-thieno[2,3-b]quinoline-2-carboxylic acid amide] | 6
CC1(C)CCc2c1nc1sc(C(N)=O)c(N)c1c2-c1nccs1 [Compound 23, 3-Amino-7,7-dimethyl-4-thiazol-2-yl-6,7-dihydro-5H-1-thia-8-aza-s-indacene-2-carboxylic acid amide] | 2
CC1(C)CCc2c1nc1sc(C(N)=O)c(N)c1c2-c1ccc(Cl)s1 [Compound 24, 3-Amino-4-(5-chloro-thiophen-2-yl)-7,7-dimethyl-6,7-dihydro-5H-1-thia-8-aza-s-indacene-2-carboxylic acid amide] | 1.4
CC1(C)CCc2c1nc1sc(C(N)=O)c(N)c1c2-c1cc(Br)cs1 [Compound 25, 3-Amino-4-(4-bromo-thiophen-2-yl)-7,7-dimethyl-6,7-dihydro-5H-1-thia-8-aza-s-indacene-2-carboxylic acid amide] | 0.8
CCC(C)c1c2c(nc3sc(C(N)=O)c(N)c13)C(C)(C)CC2 (stereo not drawn) [Compound 26, 3-Amino-4-sec-butyl-7,7-dimethyl-6,7-dihydro-5H-1-thia-8-aza-s-indacene-2-carboxylic acid amide] | 1
CC1(C)CCc2c1nc1sc(C(N)=O)c(N)c1c2-c1ccc(Br)s1 [Compound 27, 3-Amino-4-(5-bromo-thiophen-2-yl)-7,7-dimethyl-6,7-dihydro-5H-1-thia-8-aza-s-indacene-2-carboxylic acid amide] | 1.5
CC1(C)CCc2c1nc1sc(C(N)=O)c(N)c1c2-c1cncs1 [Compound 28, 3-Amino-7,7-dimethyl-4-thiazol-5-yl-6,7-dihydro-5H-1-thia-8-aza-s-indacene-2-carboxylic acid amide] | 0.4
Cn1cc(-c2c3c(nc4sc(C(N)=O)c(N)c24)C(C)(C)CC3)cn1 [Compound 29, 3-Amino-7,7-dimethyl-4-(1-methyl-1H-pyrazol-4-yl)-6,7-dihydro-5H-1-thia-8-aza-s-indacene-2-carboxylic acid amide] | 0.7
CC1(C)CCc2c1nc1sc(C(N)=O)c(N)c1c2-c1cscn1 [Compound 30, 3-Amino-7,7-dimethyl-4-thiazol-4-yl-6,7-dihydro-5H-1-thia-8-aza-s-indacene-2-carboxylic acid amide] | 3.4
CC1(C)CCc2c1nc1sc(C(N)=O)c(N)c1c2-c1cocn1 [Compound 31, 3-Amino-7,7-dimethyl-4-oxazol-4-yl-6,7-dihydro-5H-1-thia-8-aza-s-indacene-2-carboxylic acid amide] | 3.5
Cc1csc(-c2c3c(nc4sc(C(N)=O)c(N)c24)C(C)(C)CC3)n1 [Compound 32, 3-Amino-7,7-dimethyl-4-(4-methyl-thiazol-2-yl)-6,7-dihydro-5H-1-thia-8-aza-s-indacene-2-carboxylic acid amide] | 3.8
CC1(C)CCc2nc3sc(C(N)=O)c(N)c3c(-c3cncs3)c2C1 [Compound 33, 3-Amino-6,6-dimethyl-4-thiazol-5-yl-5,6,7,8-tetrahydro-thieno[2,3-b]quinoline-2-carboxylic acid amide] | 1.1
